Data from PMC10820135, “Pharmacokinetic, Tissue Distribution, Metabolite, and Toxicity Evaluation of the Matrine Derivative, (6aS, 10S, 11aR, 11bR, 11cS)-10-Methylaminododecahydro-3a, 7a-Diaza-benzo (de) Anthracene-8-thione” (Molecules, 2024).

Experiments:
[1] = Metabolite profiling of MASM in rats by UHPLC-QQQ-MS/MS; type: in vivo, Sprague-Dawley rats; conditions: rat, MASM i.p. 80 mg/kg, i.g. 60 mg/kg
Method: The identification of the in vivo metabolites of MASM was conducted using UHPLC-QQQ-MS/MS combined with standard references and deuterium-labeled MASM. The findings are presented in Table 2, while the proposed primary metabolic pathway of MASM in rats is depicted in Figure 4. To provide a comprehensive understanding of the metabolite identification process, three representative metabolites of MASM are presented, with their identification relying on primary and secondary mass spectrometry data, standard references, and deuterium-labeled MASM. The remaining metabolites are detailed in Supplementary File S4. For instance, the identification of the metabolite, M1, as a demethylation product of MASM was accomplished through the utilization of MS, MS/MS data, and the standard reference. […] Moreover, the identification of M1 as the demethylation metabolite of MASM was accomplished using the standard reference synthesized in our laboratory. […] Secondly, the metabolite, M2, of MASM was identified as the dehydrogenation product of MASM through the utilization of MS and MS/MS data. […] Consequently, M2 was identified as a dehydrogenation metabolite of M1. Thirdly, through the utilization of MS, MS/MS data, and deuterium-labeled MASM, the metabolite, M8, of MASM was determined to be a dehydrogenation product of MASM. […] The major MS/MS fragment ions of M8 were found at m/z 111.92, 178.77, 150.16, and 135.85, which aligned with the characteristic cleavage pattern of matrine. Additionally, our lab synthesized deuterium-labeled MASM to further support our proposed structure. […] Consequently, M8 was identified as a dehydrogenation metabolite of MASM. The EIC, MS/MS spectrum of M8 and deuterium-labeled MASM are all depicted in Figure 5C.
UHPLC analysis was performed using a Thermo Accela AS system, employing an ACQUITY UPLC®BEH C18 (Waters Corporation, Wexfords, Ireland) (1.7 µm, 2.1 × 100 mm) column and a binary solvent system consisting of water containing 0.1% formic acid as mobile phase A and acetonitrile as mobile phase B. For pharmacokinetic evaluation, the gradient elution was set as follows: 97% A from 0 to 2 min, 97–70% A from 2 to 3 min, 70–20% A from 3 to 3.5 min, 20% A from 3.5 to 3.6 min, 20–97% A from 3.6 to 3.7 min, and 97% A from 3.7 to 5 min. For the metabolic test, the gradient elution in full scan mode was set as follows: 97% A from 0 to 2 min, 97–70% A from 2 to 4 min, 70–20% A from 4 to 6 min, 20% A from 6 to 7 min, 20–97% A from 7 to 8 min, and 97% A from 8 to 10 min. The flow rate was 0.2 mL/min, with a temperature of 40 °C maintained and an injection volume of 5 μL. The QQQ-MS/MS analysis was conducted using a Thermo TSQ QUANTUM ACCESS MAX system equipped with an electrospray ionization (ESI) source. The spray voltages were set at 4.0 kV and 2.5 kV for positive and negative ion modes, respectively; capillary and vaporizer temperatures were 320 °C and 350 °C, respectively; sheath and aux gas pressures were 35 and 10 psi, respectively.
Seventy Sprague-Dawley rats were fasted overnight before dosing, with free access to water. Subsequently, the rats were randomly and equally divided into 7 groups: the control groups received 3 different routes of administration: intravenous, intraperitoneal, and intragastric (NS, saline 1 mL/100 g); MASM intraperitoneal group (A, i.p. 80 mg/kg), MASM intragastrical group (B, i.g. 60 mg/kg), MASM intravenous group (C, i.v. 15 mg/kg), and DMASM intragastrical group (D, i.g. 60 mg/kg). It is important to note that the recommended clinical dose of matrine injection is 0.15 g, which is equivalent to a dosage of 15 mg/kg in rats. MASM was administered via tail vein injection at a dosage of 1 mL/100 g for intravenous dosing, while for intraperitoneal dosing, MASM was injected at the lower-right side of the abdomen of rats. […]

[2] = cited from earlier work
[3] = tested on: mice; conditions: cited from earlier work

SMILES | Method of Administration after which the metabolite of MASM was found [1] | also measured
O=CNC1CC(=S)N2CC3CCCN4CCCC(C34)C2C1 (stereo not shown) [M10] | i.g. | –
O=C1CCC[C@@H]2[C@H]3CCCN4CCC[C@@H](CN12)[C@@H]34 [matrine] | – | time of peak plasma concentration of matrine ([2]; after oral administration, ref Zhang et al. 11): 2.1 h; bioavailability of matrine ([2]; reported value, ref Yang et al. 12): 18.5%; LD50 of matrine [3]: 83.21 mg/kg
OCNC1CC(=S)N2CC3CCCN4CCCC(C34)C2C1 (stereo not shown) [M9] | i.g. | –
NC1CC(=S)N2CC3CCCN4CCCC(C34)C2C1 (stereo not shown) [M7] | i.p. i.g. | –
CN[C@@H]1CC(=S)N2CC3CCCN4C=CCC(C34)C2C1 (stereo partly shown) [M8] | i.g. | –
O=C1C=CC[C@@H]2[C@H]3CCC[N+]4([O-])CCC[C@@H](CN12)[C@@H]34 (stereo partly shown) [M4, oxysophocarpine] | i.p. i.g. | –
CNC1CC(S)N2CC3CCCN4CCCC(C34)C2C1 (stereo not shown) [M6] | i.p. i.g. | –
O=C1CCC[C@@H]2[C@H]3CCC[N+]4([O-])CCC[C@@H](CN12)[C@@H]34 (stereo partly shown) [M5, oxymatrine] | i.p. i.g. | –
